Each structure is given as a SMILES string. pIC50: −log10 of the molar value.

In this assay the test system is human monocytic cell line U937. Nature of the assay: Human U937 cellular necroptosis assay. The assay is classed as cell-based. Conditions: U-937; U937 cells stimulated with 25 ng/mL human TNFalpha and 25 μM z-VAD-FMK; 22 hr; viability by Cell Titer-Glo 2.0; read-out: hU937 IC50. On the procedure:
Human U937 Cellular Necroptosis Assay
The human monocytic cell line U937 (CRL-1593.2) may be purchased from ATCC. The cells are routinely maintained in RPMI-1640 Medium (Gibco, Catalog #11875-093) supplemented with 10% heat inactivated fetal bovine serum (Gibco, Catalog #16140-071), 100 units/mL penicillin and 100 μg/mL streptomycin (Gibco, Catalog #15140-122), in a humidified incubator (37° C., 5% CO2). For the assay, cells are resuspended in RPMI-1640 phenol red free Media (Gibco, Catalog #11835-030) supplemented with 10% fetal bovine serum (Sigma, Catalog #F2442), 100 units/mL penicillin and 100 ug/mL streptomycin. Cells are stimulated with 25 ng/mL human TNFalpha (Cell Sciences, Catalog #CSI15659B) and 25 μM z-VAD-FMK (R&D Systems, Catalog #FMK001) followed by seeding 5000 cells per well in a volume of 40 μL to a white, CulturPlate-384 (Perkin Elmer, Catalog #6007680). Stock solutions of the test compounds are prepared in 100% DMSO (Sigma, Catalog #D2650) and serially diluted 1:3 using 100% DMSO. Compounds are additionally diluted 1:40 in assay medium, and 10 μL/well was transferred to the plate. Following the compound addition, the plate is incubated at 37° C. and 5% CO2 for 22 hr. After 22 hr, viability is assessed with the addition of 20 μL of Cell Titer-Glo 2.0 (Promega, Catalog #G9243). The tissue culture plate is shaken on an orbital shaker at 300 RPM for 15 minutes at room temperature in the dark. Luminescence is measured using a PerkinElmer Envision™ plate reader. IC50 values are calculated using a four-parameter logistic curve fit using Genedata Screener software. Compounds disclosed herein are expected to have activity in this assay.
(Cellular ATP, detected with luciferase, serves as a proxy for viable cell number.)
Regarding `CN1C(=O)[C@@H](NC(=O)c2ncc(Cl)c(-c3ccc(Cl)cc3)n2)COc2cccnc21` [Example 52, (S)-5-chloro-4-(4-chlorophenyl)-N-(5-methyl-4-oxo-2,3,4,5-tetrahydro-pyrido[3,2-b][1,4]oxazepin-3-yl)pyrimidine-2-carboxamide], the pIC50 is 7.92.
Regarding `Cc1ccc(-c2nc(C(=O)N[C@H]3COc4cccnc4N(C)C3=O)ncc2Cl)c(F)c1` [Example 53, (S)-5-chloro-4-(2-fluoro-4-methylphenyl)-N-(5-methyl-4-oxo-2,3,4,5-tetrahydro-pyrido[3,2-b][1,4]oxazepin-3-yl)pyrimidine-2-carboxamide], the pIC50 was 7.93.
The figure for `Cc1ccc(-c2nc(C(=O)N[C@H]3COc4cccnc4N(C)C3=O)ncc2Cl)cc1F` [Example 54, (S)-5-chloro-4-(3-fluoro-4-methylphenyl)-N-(5-methyl-4-oxo-2,3,4,5-tetrahydro-pyrido[3,2-b][1,4]oxazepin-3-yl)pyrimidine-2-carboxamide] is 7.87.
The figure for `C[C@H]1Oc2cccnc2N(C)C(=O)[C@H]1NC(=O)c1ncc(Cl)c(-c2ccc(F)cc2F)n1` [Example 55, 5-chloro-4-(2,4-difluorophenyl)-N-((2R,3S)-2,5-dimethyl-4-oxo-2,3,4,5-tetrahydropyrido[3,2-b]-[1,4]oxazepin-3-yl)pyrimidine-2-carboxamide] is 7.46.
The figure for `CN1C(=O)[C@@H](NC(=O)c2ncc(Cl)c(-c3cncc(F)c3)n2)COc2cccnc21` [Example 56, (S)-5-chloro-4-(5-fluoropyridin-3-yl)-N-(5-methyl-4-oxo-2,3,4,5-tetrahydropyrido[3,2-b]-[1,4]oxazepin-3-yl)pyrimidine-2-carboxamide] is 6.74; for `Cc1cnc(C(=O)N[C@H]2COc3cccnc3N(C)C2=O)nc1C12CCC(CC1)CC2` [Example 57, (S)-4-(bicyclo[2.2.2]octan-1-yl)-5-methyl-N-(5-methyl-4-oxo-2,3,4,5-tetrahydro-pyrido[3,2-b][1,4]oxazepin-3-yl)pyrimidine-2-carboxamide] it is 7.04.
Turning to `Cc1cnc(C(=O)N[C@H]2COc3cccnc3N(C)C2=O)nc1C1CCOCC1` [Example 58, (S)-5-methyl-N-(5-methyl-4-oxo-2,3,4,5-tetrahydro-pyrido[3,2-b][1,4]oxazepin-3-yl)-4-(tetrahydro-2H-pyran-4-yl)pyrimidine-2-carboxamide], the pIC50 is 6.64.
Take `Cc1cnc(C(=O)N[C@H]2COc3cccnc3N(C)C2=O)nc1-c1cccc(F)c1F` [Example 59, (S)-4-(2,3-difluorophenyl)-5-methyl-N-(5-methyl-4-oxo-2,3,4,5-tetrahydropyrido[3,2-b]-[1,4]oxazepin-3-yl)pyrimidine-2-carboxamide]: the pIC50 was 7.86.
The same measure for `Cc1cnc(C(=O)N[C@H]2COc3cccnc3N(C)C2=O)nc1-c1ccc(F)cc1F` [Example 60, (S)-4-(2,4-difluorophenyl)-5-methyl-N-(5-methyl-4-oxo-2,3,4,5-tetrahydropyrido[3,2-b]-[1,4]oxazepin-3-yl)pyrimidine-2-carboxamide]: 7.79; for `Cc1ccc(-c2nc(C(=O)N[C@H]3COc4cccnc4N(C)C3=O)ncc2C)c(F)c1` [Example 61, (S)-4-(2-fluoro-4-methylphenyl)-5-methyl-N-(5-methyl-4-oxo-2,3,4,5-tetrahydropyrido[3,2-b]-[1,4]oxazepin-3-yl)pyrimidine-2-carboxamide]: 7.79; for `Cc1ccc(-c2nc(C(=O)N[C@H]3COc4cccnc4N(C)C3=O)ncc2C)cc1F` [Example 62, (S)-4-(3-fluoro-4-methylphenyl)-5-methyl-N-(5-methyl-4-oxo-2,3,4,5-tetrahydropyrido[3,2-b]-[1,4]oxazepin-3-yl)pyrimidine-2-carboxamide]: 7.98.
The figure for `Cc1cc(F)ccc1-c1ccnc(C(=O)N[C@H]2COc3cc(F)cnc3N(C)C2=O)n1` [Example 63, (S)-4-(4-fluoro-2-methylphenyl)-N-(8-fluoro-5-methyl-4-oxo-2,3,4,5-tetrahydropyrido[3,2-b]-[1,4]oxazepin-3-yl)pyrimidine-2-carboxamide] is 6.93.
For the compound `Cc1cc(F)cc(F)c1-c1ccnc(C(=O)N[C@H]2COc3cc(F)cnc3N(C)C2=O)n1` [Example 64, (S)-4-(2,4-difluoro-6-methylphenyl)-N-(8-fluoro-5-methyl-4-oxo-2,3,4,5-tetrahydropyrido[3,2-b]-[1,4]oxazepin-3-yl)pyrimidine-2-carboxamide], the pIC50 was 6.72.
As to `Cc1cccc(-c2ccnc(C(=O)N[C@H]3COc4cc(F)cnc4N(C)C3=O)n2)c1` [Example 65, (S)-N-(8-fluoro-5-methyl-4-oxo-2,3,4,5-tetrahydro-pyrido[3,2-b][1,4]oxazepin-3-yl)-4-(m-tolyl)pyrimidine-2-carboxamide], the pIC50 was 6.75.
The same measure for `CN1C(=O)[C@@H](NC(=O)c2ncc(F)c(-c3ccc(F)cc3)n2)COc2cc(F)cnc21` [Example 66, (S)-5-fluoro-N-(8-fluoro-5-methyl-4-oxo-2,3,4,5-tetrahydropyrido[3,2-b]-[1,4]oxazepin-3-yl)-4-(4-fluorophenyl)pyrimidine-2-carboxamide]: 6.97; for `Cc1cc(F)ccc1-c1nc(C(=O)N[C@H]2COc3cc(F)cnc3N(C)C2=O)ncc1F` [Example 67, (S)-5-fluoro-4-(4-fluoro-2-methylphenyl)-N-(8-fluoro-5-methyl-4-oxo-2,3,4,5-tetrahydropyrido[3,2-b]-[1,4]oxazepin-3-yl)pyrimidine-2-carboxamide]: 7.61.
The same measure for `CN1C(=O)[C@@H](NC(=O)c2ncc(Cl)c(-c3ccccc3)n2)COc2cc(F)cnc21` [Example 69, (S)-5-chloro-N-(8-fluoro-5-methyl-4-oxo-2,3,4,5-tetrahydropyrido[3,2-b]-[1,4]oxazepin-3-yl)-4-phenylpyrimidine-2-carboxamide]: 8.13; for `CN1C(=O)[C@@H](NC(=O)c2ncc(Cl)c(-c3cccc(F)c3)n2)COc2cc(F)cnc21` [Example 70, (S)-5-chloro-N-(8-fluoro-5-methyl-4-oxo-2,3,4,5-tetrahydropyrido[3,2-b]-[1,4]oxazepin-3-yl)-4-(3-fluorophenyl)pyrimidine-2-carboxamide]: 8.00; for `CN1C(=O)[C@@H](NC(=O)c2ncc(Cl)c(-c3ccc(F)cc3)n2)COc2cc(F)cnc21` [Example 71, (S)-5-chloro-N-(8-fluoro-5-methyl-4-oxo-2,3,4,5-tetrahydropyrido[3,2-b]-[1,4]oxazepin-3-yl)-4-(4-fluorophenyl)pyrimidine-2-carboxamide]: 8.05.
The same measure for `CN1C(=O)[C@@H](NC(=O)c2ncc(Cl)c(-c3cccc(F)c3F)n2)COc2cc(F)cnc21` [Example 72, (S)-5-chloro-4-(2,3-difluorophenyl)-N-(8-fluoro-5-methyl-4-oxo-2,3,4,5-tetrahydropyrido[3,2-b]-[1,4]oxazepin-3-yl)pyrimidine-2-carboxamide]: 7.59; for `CN1C(=O)[C@@H](NC(=O)c2ncc(Cl)c(-c3ccc(F)cc3F)n2)COc2cc(F)cnc21` [Example 73, (S)-5-chloro-4-(2,4-difluorophenyl)-N-(8-fluoro-5-methyl-4-oxo-2,3,4,5-tetrahydropyrido[3,2-b]-[1,4]oxazepin-3-yl)pyrimidine-2-carboxamide]: 7.94.
Take `CN1C(=O)[C@@H](NC(=O)c2ncc(Cl)c(-c3cc(F)ccc3F)n2)COc2cc(F)cnc21` [Example 74, (S)-5-chloro-4-(2,5-difluorophenyl)-N-(8-fluoro-5-methyl-4-oxo-2,3,4,5-tetrahydropyrido[3,2-b]-[1,4]oxazepin-3-yl)pyrimidine-2-carboxamide]: the negative-log IC50 (pIC50) was 7.96.
Consider `CN1C(=O)[C@@H](NC(=O)c2ncc(Cl)c(-c3ccc(F)c(F)c3)n2)COc2cc(F)cnc21` [Example 75, (S)-5-chloro-4-(3,4-difluorophenyl)-N-(8-fluoro-5-methyl-4-oxo-2,3,4,5-tetrahydropyrido[3,2-b]-[1,4]oxazepin-3-yl)pyrimidine-2-carboxamide], for which the pIC50 is 7.92.
The figure for `CN1C(=O)[C@@H](NC(=O)c2ncc(Cl)c(-c3cc(F)cc(F)c3)n2)COc2cc(F)cnc21` [Example 76, (S)-5-chloro-4-(3,5-difluorophenyl)-N-(8-fluoro-5-methyl-4-oxo-2,3,4,5-tetrahydropyrido [3,2-b]-[1,4]oxazepin-3-yl)pyrimidine-2-carboxamide] is 7.78; for `Cc1ccc(-c2nc(C(=O)N[C@H]3COc4cc(F)cnc4N(C)C3=O)ncc2Cl)c(F)c1` [Example 77, (S)-5-chloro-4-(2-fluoro-4-methylphenyl)-N-(8-fluoro-5-methyl-4-oxo-2,3,4,5-tetrahydropyrido[3,2-b]-[1,4]oxazepin-3-yl)pyrimidine-2-carboxamide] it is 8.04.

The pIC50 is the IC50 on a negative log10 scale, so that one unit is a factor of ten.

The values are drawn from patent publication US12565490B2, “Inhibitors of Receptor Interacting Protein Kinase I for the treatment of disease” (Board of Regents, The University of Texas System, priority 2020, dated 2026).
